Source: patent US20250296938A1, “Compounds that Interact with the Ras Superfamily for the Treatment of Cancers, Inflammatory Diseases, Rasopathies, and Fibrotic Disease” (SHY Therapeutics, LLC, priority 2018, published 2025)

Experiments:
IL-6 = experiment: Mouse IL6 quantification assay, LPS-stimulated RAW 264.7 macrophages; type: cell-based; conditions: RAW264.7, 30 μM, LPS-stimulated RAW 264.7 macrophages
Protocol: (§1) Cell lines: Abelson murine leukemia virus transformed macrophage cell line RAW 264.7 was purchased from ATCC and grown in complete DMEM-High Glucose medium supplemented with penicillin (100 U/mL), streptomycin (100 μg/mL), and 10% heat-inactivated FBS at 37° C. in a humidified incubator with 5% CO2.
(§2) Method: Cells were plated at 25000-40000 cells/well density in a 96-well plate. After a 3-hour incubation, macrophages were starved with DMEM plus 0.5% FBS overnight. The next day the small molecules to be tested were added to the cells in the final concentration of 30 μM (with 0.3% DMSO) 3 hours prior to LPS stimulation (100 ng/ml). After LPS stimulation cells were incubated at 37° C. for 16 h. Alternatively, compounds were also tested at 10 μM and LPS (100 ng/ml) was added concurrently and incubated 5 hours at 37° C. At the end of the incubation periods, culture medium was collected and production of LPS-induced TNF-α and IL-6 cytokine was measured using ELISA detection kits.
(§3) Sandwich ELISA: The ELISA Immunoassays Quantikine Mouse TNF-alpha (catalog number MTA00B) and IL6 (catalog number M6000B) were purchased from R&D Systems Inc., Minneapolis, MN. These 4.5 hours solid phase ELISAs were used to measure mouse TNF-α or IL-6 levels in macrophages culture supernatants. Assays were executed according to the manufacturer specifications.

TNF-α = experiment: Mouse TNF alpha quantification assay, LPS-stimulated RAW 264.7 macrophages; type: cell-based; conditions: RAW264.7, 30 μM, LPS-stimulated RAW 264.7 macrophages
Protocol: as §1, §2, §3

SMILES | inhibition at 30 µM (IL-6) [%] | inhibition at 30 µM (TNF-α) [%]
CO[C@@H]1CCC(Nc2nc(-c3nccn3C)nc3sc(-c4ccn(C)n4)c(-c4ccccc4)c23)C1 (some centres unmarked) [drawing 684] | 76 to 100 | 76 to 100
COCC1CCN(c2nc(-c3nccn3C)nc3sc(-c4ccn(C)n4)c(-c4ccccc4)c23)C1 (centres unmarked) [drawing 685] | 76 to 100 | 76 to 100
Cn1ccc(-c2sc3nc(-c4nccn4C)nc(N4CCC5(CCOC5)C4)c3c2-c2ccccc2)n1 (centres unmarked) [drawing 686] | 51 to 75 | 0
COC1CCN(c2nc(-c3nccn3C)nc3sc(-c4ccn(C)n4)c(-c4ccccc4)c23)CC1 [drawing 687] | 26 to 50 | 26 to 50
COCCCNc1nc(-c2nccn2C)nc2sc(-c3ccn(C)n3)c(-c3ccc(OC)cc3)c12 [drawing 688] | 76 to 100 | 0
COCC(C)Nc1nc(-c2nccn2C)nc2sc(-c3ccn(C)n3)c(-c3ccc(OC)cc3)c12 (centres unmarked) [drawing 689] | 76 to 100 | 0
COc1ccc(-c2c(-c3ccn(C)n3)sc3nc(-c4nccn4C)nc(N4CCC(OC)C4)c23)cc1 (centres unmarked) [drawing 690] | 1 to 25 | 0
COCC(C)Nc1nc(-c2nccn2C)nc2sc(-c3ccccc3Cl)c(-c3cscn3)c12 (centres unmarked) [drawing 691] | 76 to 100 | 76 to 100
COC1CCN(c2nc(-c3nccn3C)nc3sc(-c4ccccc4Cl)c(-c4cscn4)c23)C1 (centres unmarked) [drawing 692] | 51 to 75 | 0
COCC(C)Nc1nc(-c2nccn2C)nc2sc(-c3cccc(OC)c3)c(-c3cscn3)c12 (centres unmarked) [drawing 693] | 26 to 50 | 26 to 50
COc1cccc(-c2sc3nc(-c4nccn4C)nc(N4CCC(OC)C4)c3c2-c2cscn2)c1 (centres unmarked) [drawing 694] | 1 to 25 | 1 to 25
COCCNc1nc(-c2nccn2C)nc2sc(-c3ccccc3Cl)c(-c3ccc(OC)cc3)c12 [drawing 695] | 26 to 50 | 0
COCCNc1nc(-c2nccn2C)nc2sc(-c3cccc(OC)c3)c(-c3ccc(OC)cc3)c12 [drawing 696] | 76 to 100 | 76 to 100
COCCNc1nc(-c2nccn2C)nc2sc(-c3cccc(OC)c3Cl)c(-c3ccc(OC)cc3)c12 [drawing 697] | 26 to 50 | 0
COCCNc1nc(-c2nccn2C)nc2sc(-c3cc(OC)ccc3Cl)c(-c3ccc(OC)cc3)c12 [drawing 698] | 51 to 75 | 26 to 50
COCCNc1nc(-c2cn(C)cn2)nc2sc(-c3ccccc3Cl)c(-c3ccc(OC)cc3)c12 [drawing 699] | 76 to 100 | 76 to 100
COCCNc1nc(-c2nccn2C)nc2sc(-c3cccc(OC)c3Cl)c(-c3ccccc3)c12 [drawing 700] | 76 to 100 | 76 to 100
COCCNc1nc(-c2nccn2C)nc2sc(-c3cc(OC)ccc3Cl)c(-c3ccccc3)c12 [drawing 701] | 51 to 75 | 1 to 25
COc1cc(-c2sc3nc(-c4nccn4C)nc(N4CCC(OC)C4)c3c2-c2ccccc2)ccn1 (centres unmarked) [drawing 702] | 76 to 100 | 76 to 100
COC1CCN(c2nc(-c3nccn3C)nc3sc(-c4ccnn4C)c(-c4ccccc4)c23)C1 (centres unmarked) [drawing 703] | 26 to 50 | 0

SMILES | inhibition at 30 µM (IL-6) [%] | inhibition at 30 µM (TNF-α) [%]
COC1CCN(c2nc(-c3nccn3C)nc3sc(-c4cccnc4)c(-c4ccccc4)c23)C1 (centres unmarked) [drawing 704] | 76 to 100 | 76 to 100
COc1ccc(-c2sc3nc(-c4nccn4C)nc(N4CCC(OC)C4)c3c2-c2ccccc2)cn1 (centres unmarked) [drawing 705] | 76 to 100 | 76 to 100
COc1ncccc1-c1sc2nc(-c3nccn3C)nc(N3CCC(OC)C3)c2c1-c1ccccc1 (centres unmarked) [drawing 706] | 76 to 100 | 76 to 100
COC1CCN(c2nc(-c3nccn3C)nc3sc(-c4cnc(C5CC5)o4)c(-c4ccccc4)c23)C1 (centres unmarked) [drawing 707] | 76 to 100 | 26 to 50
COCCn1cc(-c2sc3nc(-c4nccn4C)nc(N4CCC(OC)C4)c3c2-c2ccccc2)cn1 (centres unmarked) [drawing 708] | 76 to 100 | 76 to 100
COC1CCN(c2nc(-c3nccn3C)nc3sc(-c4ccncc4C)c(-c4ccccc4)c23)C1 (centres unmarked) [drawing 709] | 76 to 100 | 26 to 50
COC1CCN(c2nc(-c3nccn3C)nc3sc(-c4cnn(C)c4)c(-c4ccccc4)c23)C1 (centres unmarked) [drawing 710] | 26 to 50 | 51 to 75
COC1CCN(c2nc(-c3nccn3C)nc3sc(-c4ccc(CO)cc4)c(-c4ccccc4)c23)C1 (centres unmarked) [drawing 711] | 76 to 100 | 76 to 100
COC1CCN(c2nc(-c3nccn3C)nc3sc(-c4ccc(N)nc4C)c(-c4ccccc4)c23)C1 (centres unmarked) [drawing 712] | 1 to 25 | 0
COC1CCN(c2nc(-c3nccn3C)nc3sc(-c4ccccc4CO)c(-c4ccccc4)c23)C1 (centres unmarked) [drawing 713] | 76 to 100 | 76 to 100
COc1nscc1-c1sc2nc(-c3nccn3C)nc(N3CCC(OC)C3)c2c1-c1ccccc1 (centres unmarked) [drawing 714] | 76 to 100 | 76 to 100
COC1CCN(c2nc(-c3nccn3C)nc3sc(-c4ccnc(N(C)C)c4)c(-c4ccccc4)c23)C1 (centres unmarked) [drawing 715] | 76 to 100 | 76 to 100
COC1CCN(c2nc(-c3nccn3C)nc3sc(Br)c(-c4ccccc4)c23)C1 (centres unmarked) [drawing 716] | 51 to 75 | 26 to 50
COc1ccc(-c2c(-c3cccc(OC)c3F)sc3nc(-c4nccn4C)nc(N4CCC(OC)C4)c23)cc1 (centres unmarked) [drawing 717] | 76 to 100 | 76 to 100
COCC1CN(c2nc(-c3nccn3C)nc3sc(-c4cccc(OC)c4F)c(-c4ccc(OC)cc4)c23)C1 [drawing 718] | 76 to 100 | 76 to 100
COc1cccc(-c2sc3nc(-c4nccn4C)nc(N4CCC(OC)C4)c3c2-c2ccccc2)c1F (centres unmarked) [drawing 719] | 76 to 100 | 76 to 100
COc1c(O)nc(-c2ccccn2)nc1Oc1cnn(C)c1 [drawing 720] | 26 to 50 | 0
COc1c(O)nc(-c2ccccn2)nc1Oc1ccc2ncccc2c1 [drawing 721] | 76 to 100 | 1 to 25
COc1c(O)nc(-c2ccccn2)nc1Oc1cccnc1 [drawing 722] | 51 to 75 | 0
COc1cccc(Oc2nc(-c3ccccn3)nc(O)c2OC)c1 [drawing 723] | 76 to 100 | 26 to 50

SMILES | inhibition at 30 µM (IL-6) [%] | inhibition at 30 µM (TNF-α) [%]
COc1ccc(Oc2nc(-c3ccccn3)nc(O)c2OC)cc1 [drawing 724] | 76 to 100 | 1 to 25
COCCc1ccc(Oc2nc(-c3ccccn3)nc(O)c2OC)cc1 [drawing 725] | 76 to 100 | 1 to 25
COc1c(O)nc(-c2ccccn2)nc1Oc1ccccc1 [drawing 726] | 76 to 100 | 1 to 25
O=C(c1nc(-c2ccccn2)nc(O)c1O)N1CCOCC1 [drawing 728] | 0 | 1 to 25
CN(Cc1ccccc1)C(=O)c1nc(-c2ccccn2)nc(O)c1O [drawing 729] | 1 to 25 | 0
O=C(NCc1ccccc1)c1nc(-c2ccccn2)nc(O)c1O [drawing 730] | 76 to 100 | 76 to 100
O=C(c1nc(-c2ccccn2)nc(O)c1O)N1CCCC1 [drawing 731] | 0 | 1 to 25
O=C(NC1CCCC1)c1nc(-c2ccccn2)nc(O)c1O [drawing 732] | 76 to 100 | 26 to 50
CC(C)CN(C)C(=O)c1nc(-c2ccccn2)nc(O)c1O [drawing 733] | 0 | 0
CC(C)CNC(=O)c1nc(-c2ccccn2)nc(O)c1O [drawing 734] | 76 to 100 | 26 to 50
COCCN(C)C(=O)c1nc(-c2ccccn2)nc(O)c1O [drawing 735] | 0 | 1 to 25
O=C(NC1CCC1)c1nc(-c2ccccn2)nc(O)c1O [drawing 736] | 76 to 100 | 1 to 25
CC(C)NC(=O)c1nc(-c2nccn2C)nc(O)c1O [drawing 737] | 0 | 1 to 25
CCN(CC)C(=O)c1nc(-c2nccn2C)nc(O)c1O [drawing 738] | 0 | 1 to 25
Cn1ccnc1-c1nc(O)c(O)c(C(=O)N2CCCC2)n1 [drawing 739] | 0 | 1 to 25
Cn1ccnc1-c1nc(O)c(O)c(C(=O)NC2CCCC2)n1 [drawing 740] | 0 | 1 to 25
Cn1ccnc1-c1nc(O)c(O)c(C(=O)N2CCCCC2)n1 [drawing 741] | 0 | 1 to 25
Cn1ccnc1-c1nc(O)c(O)c(C(=O)NC2CCC2)n1 [drawing 742] | 0 | 1 to 25
